# From patent publication US20220117989A1, “COMPOSITIONS AND METHODS FOR INDUCING OR SUPPLEMENTING SOCS3 TO ABROGATE TUMOR GROWTH AND PROLIFERATIVE RETINOPATHY” (Children's Medical Center Corporation, priority 2019, published 2022)
# Read-outs that look alike come from different tables or passages of the source.
# Assays:
# [1] = test system: tumor associated macrophages; assay: FACS analysis of tumor macrophage populations (M1, M2, TIDC); format: in vivo, mouse
# Text: The impact of the above-recited modes of Socs3 modulation upon monocyte differentiation was examined (FIGS. 20-26), employing FACS analysis of monocyte populations (FIG. 20 provides an overview of the FACS approach, where green cells were positively charged and therefore sorted towards an anode plate while negatively charged red cells were sorted toward a […]).
# tumors = assay: FACS of immune cells isolated from tumors treated with Naringenin or vehicle control; format: in vivo
# Protocol: FIG. 45 is a series of plots quantifying the tumor volume, total tumor cells isolated from tumors, total CD45 positive cells and percentage of CD45 positive cells vs. total cells in control- or Naringenin-treated tumors. 1,2,3,4,5 represents the individual tumor in each group. In order to determine whether Naringenin influences the infiltrating of different immune cell types into tumors, fluorescence-activated cell sorting (FACS) was conducted on cells isolated from tumors treated with Naringenin or vehicle control.
# Socs3 = Socs3 levels after naringenin administration to tumor-bearing mice; format: in vivo, mouse
# Text: The surprising efficacy of localized Socs3 overexpression in reducing tumor growth prompted interest in identifying compounds capable of up-regulating Socs3. One candidate molecule for up-regulation of Socs3 was Naringenin, a flavanone compound. […] Naringenin administration was also observed to have shrunk tumors at the day 12-13 timepoint examined, with 100% of tumors of Socs3f/f mice and 60% of tumors in Socs3 nestin conditional knockout mice observed to have shrunk at day 13 of the timecourse (FIGS. 18B and 18C).
# [2] = test system: Lewis lung carcinoma cell line; assay: Lewis lung carcinoma (LLC) cells implanted in Socs3f/f and Socs3 Nestin ko mice, tumor growth curves; format: in vivo, mouse
# [3] = test system: B16F10-Luciferase Melanoma cell line; format: in vivo, mouse
# LLC tumor = format: in vivo, mouse; details: as compared to PBS-treated controls
# Text: The effect of donepezil treatment was also examined in wild-type, heterozygote alpha-7 AChR knockout mice and homozygote alpha-7 AChR knockout mice (FIG. 40A).
# tumor cell = details: mouse, in vivo
# [4] = agent administered to model mice, versus control animals
compound,measurement,setting,value
O=C1C[C@@H](c2ccc(O)cc2)Oc2cc(O)cc(O)c21 [Naringenin],M1 macrophage levels,[1]; Socs3 neuronal deficient tumor,promote M1 macrophage levels
same,M2 macrophage levels,[1]; Socs3 neuronal deficient tumor,reducing M2 macrophage levels
same,M1 macrophage levels,[1]; wild-type tumor,promoted M1 macrophage levels
same,M2 macrophage levels,[1]; wild-type tumor,did not change M2 macrophage levels
same,population of CD4+ T cells in the tumors,tumors; Naringenin treatment,did not change
same,percentage of CD45+ γδ T cells,tumors; Naringenin-treated group,increased
same,CD8+ T cell recruitment into tumors,tumors; Naringenin-treated tumors,variations
same,percentage of natural killer (NK) cells of CD45+ cells,tumors; compared to the control-treated group,higher
same,"tumors, based on tumor volume and total cells isolated from the entire tumors",tumors; compared with control group,significantly suppressed
same,Socs3 levels,Socs3,increased Socs3 levels
same,"tumors observed to have shrunk, Socs3f/f mice","[2]; day 13 of the timecourse, Socs3f/f mice",100%
same,"tumors observed to have shrunk, Socs3 nestin conditional knockout mice","[2]; day 13 of the timecourse, Socs3 nestin conditional knockout mice",60%
same,"tumor growth, naringenin administration","[2]; treatment administered on day 4, Socs3-containing and Socs3 nestin conditional knockout mice",significantly decreased tumor growth
COc1cc2c(cc1OC)C(=O)C(CC1CCN(Cc3ccccc3)CC1)C2 (stereo not shown) [donepezil],F4/80+/CD11c+ (M1 macrophage) cells,"[1]; mouse, in vivo",expanded population
same,TIDC population (CD45+; F4/80+; CD11c+ cells),"[1]; mouse, in vivo",expanded
same,"tumor growth, B16F10 tumor cells",[3]; [4],prevented tumor growth
same,"tumor growth, LLC tumor cells",[2]; [4],prevented tumor growth
same,"tumor growth rate, homozygous alpha-7 AChR knockout mice",LLC tumor,robust reduction of tumor growth rate
same,"tumor growth, heterozygote alpha-7 AChR knockout mice",LLC tumor,significant reduction in tumor growth
"O=C1NC[C@@]2(CN3CCC2CC3)O1 [AR-R17779, (2S)-2′H-spiro[4-azabicyclo[2.2.2]octane-2,5′-[1,3]oxazolidin]-2′-one]",M1 macrophage levels,[1]; Socs3 neuronal deficient tumor,promoted M1 macrophage levels
same,M2 macrophage levels,[1]; Socs3 neuronal deficient tumor,not promoting M2 macrophage levels
same,M1 macrophage levels,[1]; wild-type tumor,promoted M1 macrophage levels
same,M2 macrophage levels,[1]; wild-type tumor,did not change M2 macrophage levels
same,"tumor growth, LLC tumor cells",[2]; [4],significantly prevented tumor growth
same,tumor size,[2]; day 10 post-implantation in model mice,decreased tumor size
alpha-bungarotoxin [a-BTX],TIDC population (CD45+; F4/80+; CD11c+ cells),"[1]; mouse, in vivo",contracted
same,"tumor growth, B16F10 tumor cells","[3]; mouse, in vivo",promoted tumor growth
same,"tumor growth, LLC tumor cells","[2]; mouse, in vivo",promoted tumor growth
Botulinum toxin [Botox],"tumor growth, nestin-conditional Socs3 knockout mice",tumor cell,no additional effect on tumor growth
same,"tumor growth, wild-type mice",tumor cell,effectively mimicked the tumor growth effect of nestin-conditional Socs3 knockout
same,tumor seeding,tumor cell,promoted tumor seeding
